Test results reported in the supplement of paper PMC10307832.

Key:
Experiment in all cases: relative viability (nuclei count vs DMSO), 5 days (fraction); higher = more cells survive
Crenolanib + Linsitinib = compound: CC1(COc2ccc3c(c2)ncn3-c2ccc3cccc(N4CCC(N)CC4)c3n2)COC1 [Crenolanib] + C[C@]1(O)C[C@@H](c2nc(-c3ccc4ccc(-c5ccccc5)nc4c3)c3c(N)nccn32)C1 [Linsitinib] (partner 1 µM)
How it was run: (§1)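 The day after seeding in 1536-well plates, lung cancer cell lines were treated by pin tool with a single drug, or with a fixed anchor-drug dose together with five library-drug doses (not always all listed) in √10 steps. After 5 days, a combined fix-and-stain solution (final 0.05% Triton X-100, 1% formaldehyde, 1 ug/ml Hoechst) was added. Nuclei counted on 4× images gave relative viability as treated counts over vehicle counts, reported as the median of duplicate plates.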

Crenolanib + Dasatinib = compound: CC1(COc2ccc3c(c2)ncn3-c2ccc3cccc(N4CCC(N)CC4)c3n2)COC1 [Crenolanib] + Cc1nc(Nc2ncc(C(=O)Nc3c(C)cccc3Cl)s2)cc(N2CCN(CCO)CC2)n1 [Dasatinib] (partner 0.075 µM)
How it was run: as §1

Crenolanib + Pemetrexed = compound: CC1(COc2ccc3c(c2)ncn3-c2ccc3cccc(N4CCC(N)CC4)c3n2)COC1 [Crenolanib] + Nc1nc2[nH]cc(CCc3ccc(C(=O)N[C@@H](CCC(=O)O)C(=O)O)cc3)c2c(=O)[nH]1 [Pemetrexed] (partner 0.2 µM)
How it was run: as §1

Tivantinib + Lapatinib = compound: O=C1NC(=O)[C@@H](c2cn3c4c(cccc24)CCC3)[C@@H]1c1c[nH]c2ccccc12 [Tivantinib] + CS(=O)(=O)CCNCc1ccc(-c2ccc3ncnc(Nc4ccc(OCc5cccc(F)c5)c(Cl)c4)c3c2)o1 [Lapatinib] (partner 2 µM)
How it was run: as §1

| Cell Line | relative viability (Crenolanib + Linsitinib; first compound 0.01 µM) | relative viability (Crenolanib + Linsitinib; first compound 0.03162 µM) | relative viability (Crenolanib + Linsitinib; first compound 0.1 µM) | relative viability (Crenolanib + Linsitinib; first compound 0.3162 µM) | relative viability (Crenolanib + Linsitinib; first compound 1 µM) | relative viability (Crenolanib + Dasatinib; first compound 0.01 µM) | relative viability (Crenolanib + Dasatinib; first compound 0.03162 µM) | relative viability (Crenolanib + Dasatinib; first compound 0.1 µM) | relative viability (Crenolanib + Dasatinib; first compound 0.3162 µM) | relative viability (Crenolanib + Dasatinib; first compound 1 µM) | relative viability (Crenolanib + Pemetrexed; first compound 0.01 µM) | relative viability (Crenolanib + Pemetrexed; first compound 0.03162 µM) | relative viability (Crenolanib + Pemetrexed; first compound 0.1 µM) | relative viability (Crenolanib + Pemetrexed; first compound 0.3162 µM) | relative viability (Crenolanib + Pemetrexed; first compound 1 µM) | relative viability (Tivantinib + Lapatinib; first compound 0.01 µM) | relative viability (Tivantinib + Lapatinib; first compound 0.03162 µM) | relative viability (Tivantinib + Lapatinib; first compound 0.1 µM) | relative viability (Tivantinib + Lapatinib; first compound 0.3162 µM) |
| --- | --- | --- | --- | --- | --- | --- | --- | --- | --- | --- | --- | --- | --- | --- | --- | --- | --- | --- | --- |
| HCC-366 | 0.628 | 0.738 | 0.574 | 0.819 | 0.69 | 0.655 | 0.662 | 0.593 | 0.648 | 0.519 | 0.179 | 0.161 | 0.171 | 0.181 | 0.157 | 0.89 | 1.03 | 0.99 | 1.03 |
| HCC-78 | 0.654 | 0.512 | 0.496 | 0.518 | 0.506 | 0.389 | 0.314 | – | 0.354 | 0.275 | 0.864 | 1.01 | 0.909 | 0.956 | 0.865 | 0.477 | 0.786 | 0.647 | 0.456 |
| COR-L23 | 1.06 | 1.02 | 0.884 | 1.15 | 0.88 | 0.497 | 0.466 | 0.475 | 0.54 | 0.417 | 0.185 | 0.189 | 0.201 | 0.199 | 0.202 | 1.12 | 0.975 | 0.894 | 0.922 |
| HCC-827 | 0.958 | 0.94 | 0.946 | 0.953 | 0.872 | 0.338 | 0.33 | 0.398 | 0.366 | 0.396 | 0.256 | 0.277 | 0.195 | 0.26 | 0.268 | 0.213 | 0.211 | 0.176 | 0.165 |
| NCI-H1355 | 0.857 | 0.848 | 0.773 | 0.947 | 0.809 | 0.733 | 0.704 | 0.681 | 0.718 | 0.488 | 1.07 | 1.12 | 0.947 | 1.13 | 1.01 | 1.04 | 0.928 | 0.899 | 1.09 |
| NCI-H838 | 1.05 | 0.967 | 0.929 | 1.09 | 0.943 | 0.262 | 0.294 | 0.273 | 0.28 | 0.219 | 0.247 | 0.253 | 0.258 | 0.264 | 0.281 | 1.04 | 0.96 | 0.891 | 0.894 |
| NCI-H2126 | 0.693 | 0.717 | 0.745 | 0.759 | 0.788 | 0.595 | 0.635 | 0.604 | 0.74 | 0.616 | 0.725 | 0.678 | 0.694 | 0.715 | 0.605 | 0.799 | 0.737 | 0.77 | 0.799 |
| BEN | 1.03 | 0.895 | 0.83 | 0.848 | 0.911 | 0.281 | 0.256 | 0.363 | 0.345 | 0.323 | 0.784 | 0.637 | 0.677 | 0.752 | 0.774 | 0.623 | 0.617 | 0.591 | 0.691 |
| LCLC-97TM1 | 0.18 | 0.222 | 0.185 | 0.186 | 0.184 | 0.877 | 0.883 | 0.857 | 0.949 | 0.67 | 0.192 | 0.188 | 0.182 | 0.197 | 0.184 | 1.04 | 0.852 | 1.04 | 0.889 |
| EKVX | 1.05 | 1.1 | 0.954 | 1.12 | 1.01 | 0.519 | 0.473 | 0.561 | 0.591 | 0.512 | 0.413 | 0.423 | 0.401 | 0.379 | 0.387 | 0.194 | 0.225 | 0.225 | 0.176 |
| NCI-H661 | 0.628 | 0.527 | 0.499 | 0.544 | 0.497 | 0.958 | 0.845 | 0.864 | 0.992 | 1.09 | 0.959 | 0.903 | 0.925 | 0.966 | 0.979 | 0.579 | 0.46 | 0.474 | – |
| NCI-H1651 | 1.06 | 0.988 | 0.892 | 1.02 | 0.878 | 0.504 | 0.377 | 0.373 | 0.531 | 0.336 | 0.573 | 0.599 | 0.592 | 0.566 | 0.62 | 0.866 | 0.691 | 0.799 | 0.929 |
| NCI-H2087 | 1.02 | 1.13 | 0.917 | 1.23 | 1.02 | 0.809 | 1.03 | 0.694 | 1.07 | 0.818 | 0.719 | 0.7 | 0.684 | 0.555 | 0.675 | 1.1 | 1.16 | 0.862 | 1.13 |
| NCI-H1793 | 0.811 | 1.03 | 0.838 | 1.14 | 0.873 | 0.365 | 0.412 | 0.4 | 0.404 | 0.418 | 1.02 | 0.912 | 0.835 | 1.08 | 0.993 | 0.836 | 0.735 | 0.651 | – |
| COR-L 105 | 0.873 | 1.09 | 0.748 | 1.22 | 0.92 | 0.453 | 0.315 | 0.383 | 0.42 | 0.411 | 1.25 | 1.09 | 1.09 | 1.14 | 1.1 | 0.412 | 0.359 | 0.29 | 0.359 |
| NCI-H1437 | 1.05 | 1.03 | 0.958 | 1.12 | 1.02 | 0.403 | 0.369 | 0.361 | 0.377 | 0.42 | 0.336 | 0.3 | 0.297 | 0.352 | 0.336 | 0.797 | 0.635 | 0.691 | 0.795 |
| HARA | 0.914 | 0.886 | 0.983 | 0.975 | 0.926 | 0.234 | 0.256 | 0.3 | 0.246 | 0.292 | 0.3 | 0.231 | 0.224 | 0.225 | 0.236 | 0.888 | 0.651 | 0.636 | 0.82 |
